Usually pIC50 stands for the IC50 on a negative log10 scale, so that one unit is a factor of ten.

pIC50: −log10 of the molar value.

The assay has as its target T1, GLUT1 (Homo sapiens, UniProt P11166).
T1 sequence (P11166 1-492): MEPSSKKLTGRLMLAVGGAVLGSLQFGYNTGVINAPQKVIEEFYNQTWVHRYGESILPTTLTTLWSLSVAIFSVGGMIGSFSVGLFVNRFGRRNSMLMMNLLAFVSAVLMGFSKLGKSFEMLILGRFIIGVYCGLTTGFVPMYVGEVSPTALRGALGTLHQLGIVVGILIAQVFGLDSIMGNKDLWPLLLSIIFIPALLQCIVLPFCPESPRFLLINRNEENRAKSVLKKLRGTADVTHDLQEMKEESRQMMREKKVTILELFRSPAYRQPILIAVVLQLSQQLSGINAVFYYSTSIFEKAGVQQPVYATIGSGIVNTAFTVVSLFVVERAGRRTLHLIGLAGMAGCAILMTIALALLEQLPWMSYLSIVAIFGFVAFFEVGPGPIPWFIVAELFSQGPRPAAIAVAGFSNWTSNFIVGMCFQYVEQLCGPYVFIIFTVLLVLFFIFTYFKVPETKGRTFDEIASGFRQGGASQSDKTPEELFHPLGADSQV
Kind of assay: Indirect measurement of GLUT1 activity by quantification of intracellular ATP levels (glucose induced ATP increase). It counts as cell-based. The following applies: read-out: IC50 regarding glucose induced ATP increase (GLUT1 inhibition). Details: endogenous in cells; host or cells: DLD1 or CHO-K1. Put shortly: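 DLD1 or CHO-K1 cells were starved overnight in glucose-free medium with 1% FCS, then combined with an oxidative phosphorylation inhibitor. GLUT1 activity was read as glucose-induced ATP increase, GLUT2 as fructose-induced. Intracellular ATP was quantified by CellTiter-Glo luminescence.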
Consider `Cc1c(NC(=O)c2cc(C(N)=O)nc3cccc(F)c23)c(C(F)(F)F)nn1Cc1ccc(S(C)(=O)=O)cc1` [Example 1437], for which the negative-log IC50 (pIC50) was 7.86.

As for `Cc1c(NC(=O)c2cc(C(N)=O)nc3ccccc23)c(C(F)(F)F)nn1Cc1ccc(C(C)O)cc1` (racemic) [Example 1615], the pIC50 was 7.23.

Take `COc1ccc(Cn2nc(C(F)(F)F)c(NC(=O)c3cc(C(F)(F)F)nc4ccc(Br)cc34)c2C)cn1` [Example 1027]: the pIC50 is 8.52.

As for `Cc1nn(CCc2cccc(F)c2)c(C)c1NC(=O)c1cc(C(N)=O)nc2ccccc12` [Example 1148], the pIC50 was 6.91.

Consider `COc1cc(C(=O)Nc2c(C(F)(F)F)nn(Cc3ccncc3C#N)c2C)c2ccccc2n1` [Example 1188], for which the pIC50 was 6.54.

As for `Cc1ccc2nc(C3CC3)cc(C(=O)Nc3c(C)nn(Cc4ccc(F)cc4)c3C)c2c1` [Example 7, 2-cyclopropyl-N-[1-(4-fluorobenzyl)-3,5-dimethyl-1H-pyrazol-4-yl]-6-methylquinoline-4-carboxamide], the pIC50 was 8.31.

`Cc1nn(Cc2ccc(C(=O)Nc3cc[nH]n3)cc2)c(C)c1NC(=O)c1cc(C(F)(F)F)nc2ccc(Br)cc12` [Example 1055]: the pIC50 was 7.84.

For `Cc1nn(Cc2ccc(F)cc2)c(C)c1NC(=O)c1cc(C(F)(F)F)nc2cc(F)c(Br)cc12` [Example 124, 6-bromo-7-fluoro-N-[1-(4-fluorobenzyl)-3,5-dimethyl-1H-pyrazol-4-yl]-2-(trifluoromethyl)quinoline-4-carboxamide], the pIC50 is 8.64.

As to `COc1cc2c(C(=O)Nc3c(C)nn(Cc4ccc(C#N)cc4)c3C)cc(C(N)=O)nc2cc1F` [Example 254, N^4-[1-(4-cyanobenzyl)-3,5-dimethyl-1H-pyrazol-4-yl]-7-fluoro-6-methoxyquinoline-2,4-dicarboxamide], the pIC50 was 8.92.

Consider `Cc1nn(Cc2cccc(C#N)c2)c(C)c1NC(=O)c1cc(C(N)=O)nc2ccccc12` [Example 1455], for which the negative logarithm of the IC50 (pIC50) was 7.68.

As to `Cc1nn(Cc2ccc(C#N)cn2)c(C)c1NC(=O)c1cc(C(N)=O)nc2cc(F)c(F)cc12` [Example 354, N^4-{1-[(5-cyanopyridin-2-yl)methyl]-3,5-dimethyl-1H-pyrazol-4-yl}-6,7-difluoroquinoline-2,4-dicarboxamide], the pIC50 was 8.44.

For `CNC(=O)N1CCC(Cn2nc(C)c(NC(=O)c3cc(C(N)=O)nc4ccccc34)c2C)CC1` [Example 1247], the pIC50 was 5.78.

Turning to `Cc1ccc2nc(C)cc(C(=O)Nc3c(C)nn(Cc4ccc(C(C)(C)C)cc4)c3C)c2c1` [Example 1290], the pIC50 was 5.15.

On to `Cc1c(NC(=O)c2cc(C(N)=O)nc3cc(F)c(Cl)cc23)c(C(F)(F)F)nn1Cc1c(F)cc(C#N)cc1F` [Example 398, 6-chloro-N^4-[1-(4-cyano-2,6-difluorobenzyl)-5-methyl-3-(trifluoromethyl)-1H-pyrazol-4-yl]-7-fluoroquinoline-2,4-dicarboxamide], for which the pIC50 was 8.26.

In the case of `Cc1nn(Cc2ccc(C(=O)NC[C@@H](C)O)cc2)c(C)c1NC(=O)c1cc(C(F)(F)F)nc2ccc(Br)cc12` [Example 1019], the pIC50 was 8.72.

`Cc1nn(Cc2ccc(OC(F)(F)F)cc2)c(C)c1NC(=O)c1cc(C(F)(F)F)nc2ccc(Br)cc12` [Example 56, 6-bromo-N-{3,5-dimethyl-1-[4-(trifluoromethoxy)benzyl]-1H-pyrazol-4-yl}-2-(trifluoromethyl)quinoline-4-carboxamide]: the negative logarithm of the IC50 (pIC50) was 7.22.

Consider `Cc1nn(Cc2cccc(OC(F)(F)F)c2)c(C)c1NC(=O)c1cc(C(N)=O)nc2cc(F)ccc12` [Example 1586], for which the pIC50 is 7.43.

As for `Cc1nn(Cc2cccnc2C#N)c(C)c1NC(=O)c1cc(C(N)=O)nc2ccccc12` [Example 223, N^4-{1-[(2-cyanopyridin-3-yl)methyl]-3,5-dimethyl-1H-pyrazol-4-yl}quinoline-2,4-dicarboxamide], the pIC50 is 7.95.

`Cc1nn(CC2CCCO2)c(C)c1NC(=O)c1cc(C(F)(F)F)nc2ccc(Br)cc12` (stereo not shown) [Example 1175]: the pIC50 was 6.69.

For the molecule `Cc1nn(Cc2c(F)cccc2F)c(C)c1NC(=O)c1cc(C(F)(F)F)nc2ccc(Br)cc12` [Example 13, 6-bromo-N-[1-(2,6-difluorobenzyl)-3,5-dimethyl-1H-pyrazol-4-yl]-2-(trifluoromethyl)quinoline-4-carboxamide], the pIC50 is 7.95.

`Cc1nn(Cc2ccc(F)c(F)c2)c(C)c1NC(=O)c1cc(C(N)=O)nc2cccc(F)c12` [Example 1471]: the pIC50 is 7.91.

As for `Cc1nn(Cc2ccc(CC(=O)Nc3ccccc3)cc2)c(C)c1NC(=O)c1cc(C(F)(F)F)nc2ccc(Br)cc12` [Example 155, 6-bromo-N-(3,5-dimethyl-1-{4-[2-oxo-2-(phenylamino)ethyl]benzyl}-1H-pyrazol-4-yl)-2-(trifluoromethyl)quinoline-4-carboxamide], the pIC50 was 6.51.

Turning to `Cc1c(NC(=O)c2cc(C(=O)N3CCOCC3)nc3ccc(F)cc23)c(C(F)(F)F)nn1Cc1ccc(C#N)cc1` [Example 1564], the negative-log IC50 (pIC50) is 6.95.

`CCCNC(=O)c1ccc(Cn2nc(C)c(NC(=O)c3cc(C(F)(F)F)nc4ccc(Br)cc34)c2C)cc1` [Example 1020]: the pIC50 was 8.72.

`Cc1nn(Cc2ccc(C#N)cc2)c(C)c1NC(=O)c1cc(C(N)=O)nc2c(F)cccc12` [Example 263, N^4-[1-(4-cyanobenzyl)-3,5-dimethyl-1H-pyrazol-4-yl]-8-fluoroquinoline-2,4-dicarboxamide]: the pIC50 is 8.41.

As for `Cc1cccc(Cn2nc(C)c(NC(=O)c3cc(C(N)=O)nc4ccc(Br)cc34)c2C)c1` [Example 1477], the pIC50 is 8.37.

As to `Cc1cccc(Cn2nc(C(F)(F)F)c(NC(=O)c3cc(C(N)=O)nc4ccc(Br)cc34)c2C)c1` [Example 1482], the pIC50 was 8.28.

Turning to `Cc1c(NC(=O)c2cc(S(C)(=N)=O)nc3ccccc23)c(C(F)(F)F)nn1Cc1ccc(C#N)cc1` (racemic) [Example 387, (±)-N-[1-(4-cyanobenzyl)-5-methyl-3-(trifluoromethyl)-1H-pyrazol-4-yl]-2-(S-methylsulfonimidoyl)quinoline-4-carboxamide], the pIC50 is 6.84.

`Cc1c(NC(=O)c2cc(C(N)=O)nc3ccc(Br)cc23)c(C(F)(F)F)nn1Cc1ccccc1C#N` [Example 274, 6-bromo-N^4-[1-(2-cyanobenzyl)-5-methyl-3-(trifluoromethyl)-1H-pyrazol-4-yl]quinoline-2,4-dicarboxamide]: the negative logarithm of the IC50 (pIC50) is 9.00.

With `Cc1nn(Cc2ccc(F)cc2)c(C)c1NC(=O)c1cc(C(F)(F)F)nc2ccc(C(N)=O)cc12` [Example 1294], the pIC50 was 5.09.

Consider `Cc1nn(CC2CCOCC2)c(C)c1NC(=O)c1cc(C(F)(F)F)nc2c(Cl)cc(Cl)cc12` [Example 1143], for which the pIC50 is 6.94.

On to `CCS(=O)(=O)N1CCC(Cn2nc(C)c(NC(=O)c3cc(C(N)=O)nc4cc(F)ccc34)c2C)CC1` [Example 1534], for which the pIC50 is 7.71.

Consider `CCS(=O)(=O)N1CCC(Cn2nc(C)c(NC(=O)c3cc(C(N)=O)nc4ccccc34)c2C)CC1` [Example 407, N^4-(1-{[1-(ethylsulfonyl)piperidin-4-yl]methyl}-3,5-dimethyl-1H-pyrazol-4-yl)quinoline-2,4-dicarboxamide], for which the pIC50 was 8.68.

With `Cc1nn(Cc2ccc(C(=O)N3CCC(O)C3)cc2)c(C)c1NC(=O)c1cc(C(F)(F)F)nc2ccc(Br)cc12` (racemic) [Example 1161], the negative-log IC50 (pIC50) was 6.79.
